In publication PMC11837686, “γ-Secretase modulator resistance of an aggressive Alzheimer-causing presenilin mutant can be overcome in the heterozygous patient state by a set of advanced compounds” (Alzheimer's Research & Therapy, 2025):
“And” between values parts separate entries of the source, which are not always exact repeats. Identical values can stand only once. “Also recorded” adds a separate entry of the source. Like-named read-outs stand apart in the source and are kept apart here. Each block holds one compound with its values, some of them ahead of it.

Assays:
[1] = target: T1, γ-secretase in WT (WT/WT) MEF cells (Mus musculus, UniProt P49769+Q61144); assay: Secreted Aβ species by ELISA (IBL), WT/WT MEF cells; conditions: for Secreted Aβ38: RO7019009 500 nM
[2] = target: T1, γ-secretase in WT (WT/WT) MEF cells; assay: Aβ species by Tris-Bicine urea SDS-PAGE/immunoblot, WT/WT MEF cells; conditions: RO-02 and RO7019009 500 nM, BPN-15606 360 nM; for Aβ40 (gel): WT MEF (genotype not given), RO5254601 2.5 µM; for Short species Aβ37 and Aβ38 (gel): WT MEF
[3] = target: T2, γ-secretase in homozygous (L166P/L166P) PS1 L166P KI MEF cells (Mus musculus, UniProt P49769+Q61144, L166P); assay: Aβ species by Tris-Bicine urea SDS-PAGE/immunoblot, homozygous PS1 L166P KI MEF cells
[4] = target: γ-secretase (Aβ42) in H4/sw cell line (Homo sapiens, UniProt P49768+P49810); assay: Aβ42 AlphaLISA dose–response in H4/sw cells
[5] = target: T3, endogenous γ-secretase in HEK293/sw cells (Homo sapiens, UniProt P49768+P49810); assay: Aβ dose–response in HEK293/sw cells, MSD sandwich immunoassay
[6] = test system: γ-secretase in heterozygous (WT/L166P) PS1 L166P KI MEF cells; assay: Aβ species by Tris-Bicine urea SDS-PAGE/immunoblot, heterozygous PS1 L166P KI MEF cells; conditions: for Aβ40 (gel): heterozygous KI MEF (genotype not given), RO5254601 2.5 µM; for Aβ40 (gel) / Short species Aβ37 and Aβ38 (gel): RO-02 and RO7019009 500 nM, BPN-15606 360 nM
[7] = test system: Notch1 cleavage; assay: Notch1 cleavage reporter assay (NICD release), HEK293-based reporter cell line; conditions: dose–response
[8] = test system: γ-secretase in heterozygous (WT/L166P) PS1 L166P KI MEF cells; assay: Secreted Aβ species by ELISA (IBL), heterozygous PS1 L166P KI MEF cells; conditions: for Aβ38 level in treated cells, % of total Aβ: GSM-1 2.5 µM, RO-02 500 nM, one range given for both compounds and both 'other genotypes'; for Combined pathogenic species (Aβ42 + Aβ43) / Secreted Aβ43: 24 h, RO7019009 500 nM, RO5254601 2.5 µM
[9] = test system: PS1 and PS2 NTF and CTF; assay: Photoaffinity labeling with RO6874585 and competition, HEK293 membrane fractions; format: binding, human; conditions: for Competition of RO6874585 crosslinking to presenilin: 100x excess of competitor
Method: (§1) Membrane fractions of HEK293 or MEF cells were incubated with RO6874585 in the presence or absence of other GSMs used as competitor compounds as described previously. In brief, after photoactivation, samples were solubilised using SDS-containing buffer and the crosslinked proteins were pulled down with streptavidin-sepharose. Thereafter, samples were analysed by immunoblotting.

[10] = test system: γ-secretase in heterozygous WT/L166P iPSC-derived cortical neurons; assay: Secreted Aβ species by immunoassays, heterozygous PS1 L166P KI iPSC-derived neurons; conditions: 3 days, RO7019009 500 nM or 2.5 µM, RO5254601 2.5 µM
[11] = target: γ-secretase in WT iPSC-derived cortical neurons (Homo sapiens, UniProt P49768+P49810); assay: Secreted Aβ species by immunoassays, WT iPSC-derived cortical neurons; conditions: 3 days, RO7019009 500 nM or 2.5 µM, RO5254601 2.5 µM
[12] = test system: iPSC-derived cortical neurons (total Aβ); assay: Total Aβ by MSD sandwich immunoassay (2D8/4G8) in iPSC-derived neurons; conditions: WT, heterozygous and homozygous neurons, 3 days; RO7019009 500 nM or 2.5 µM, RO5254601 2.5 µM
[13] = target: γ-secretase in homozygous L166P/L166P iPSC-derived cortical neurons (Homo sapiens, UniProt P49768+P49810, L166P); assay: Secreted Aβ species by immunoassays, homozygous PS1 L166P KI iPSC-derived neurons; conditions: 3 days
[14] = target: T4, PS1 L166P (Mus musculus, UniProt P49769, L166P); assay: Photoaffinity labeling with RO6874585, WT or PS1 L166P KI MEF membrane fractions; format: binding
T4 construct: crosslinking efficiencies of PS1 NTF and PS1 CTF in WT or PS1 L166P KI MEF cell membranes; endogenous in cells; host or cells: membrane fractions of PS1 L166P knock-in MEF cells
Method: as §1

[15] = target: T3, endogenous γ-secretase in HEK293/sw cells; set-up: endogenous γ-secretase in HEK293/sw cells; endogenous in cells; host or cells: HEK293/sw (HEK293 stably expressing APPsw); conditions: read-out: IC50 (Aβ42); cited from earlier work
[16] = test system: brain-derived cell lines; set-up: method as in PMID 31762188; conditions: read-out: IC50 (Aβ42); cited from earlier work
[17] = target: T2, γ-secretase in homozygous (L166P/L166P) PS1 L166P KI MEF cells; assay: Secreted Aβ species by ELISA (IBL), homozygous PS1 L166P KI MEF cells; conditions: GSM-1 2.5 µM, RO-02 500 nM, one range printed for both compounds, measurable in half of the samples
[18] = read-out: Aβ42 IC50 [nM ± SD], H4/sw cells, over-night incubation, Aβ42-AlphaLisa, 4–7 independent experiments

Structure (SMILES): COc1nc(-c2cc(C)c(N[C@@H](C)c3ccc(F)cc3)nn2)ccc1-n1cnc(C)c1 [BPN-15606, reference compound]
Secreted Aβ42 ([1]; 24 h, BPN-15606 360 nM): reduced Aβ42 levels
Secreted Aβ38 ([1]; 24 h, BPN-15606 360 nM): increase of Aβ38
Aβ40 (gel) [2]: strong reduction of Aβ40
Short species Aβ37 and Aβ38 (gel) [2]: increase of both short species, Aβ37 and Aβ38
Aβ43 (gel) ([3]; BPN-15606 500 nM): strong reduction of Aβ43
IC50 [4]: 16.9 ± 8.22 nM
IC50 ([5]; IC50 (Aβ42), 16–18 h, MSD sandwich immunoassay, this study): ~12 nM and 12 nM
Aβ40 (gel) [6]: strong reduction of Aβ40

Structure (SMILES): C[C@H](NC(=O)Cc1cc(F)cc(F)c1)C(=O)N[C@@H]1C(=O)N(C)c2ccccc2-c2ccccc21 [DBZ, dibenzazepine, reference compound]
IC50 [4, 18]: 0.33 ± 0.01 nM
Notch1 cleavage / NICD release [7]: reduced the levels of the Notch1 intracellular domain

Structure (SMILES): CC(C)CCC(c1ccc(Cl)cc1)N1CCC(CC(=O)O)CC1c1ccc(C(F)(F)F)cc1 (stereo not drawn) [GSM-1, reference compound]
Aβ38 level in treated cells, % of total Aβ [8]: 30–60%
Competition of RO6874585 crosslinking to presenilin [9]: did not or only weakly compete binding

Structure (SMILES): CC(C)N1CCCC(c2ccc3[nH]c(C(=O)Nc4cccc(F)c4)cc3c2)C1 (stereo not drawn) [RO5218165]
IC50 [4, 18]: 207 ± 32.4 nM
Competition of RO6874585 crosslinking to presenilin [9]: differential competition for NTF and CTF binding

Second part, led by results:

IC50 [4, 18]: 229 ± 69.8 nM
Structure (SMILES): CC(C)N1CCC(Oc2ccc3[nH]c(C(=O)Nc4ccc(F)c(F)c4)cc3c2)C1 (stereo not drawn) [RO5218863]
Competition of RO6874585 crosslinking to presenilin [9]: competed with presenilin binding

Secreted Aβ42 [10]: reduced only Aβ42
Secreted Aβ43 [10]: had no effect on Aβ43
Aβ40 (gel) [2]: little effect on Aβ40
Aβ42 (gel) ([3]; RO5254601 2.5 µM): markedly lowering Aβ42
IC50 [4]: 63.3 ± 24.1 nM
Aβ37 production ([5]; dose–response): increased Aβ37
Aβ38 production ([5]; dose–response): increased the production of Aβ38
Aβ40 production ([5]; dose–response): largely unaffected
Effect on Aβ species profile [11]: primarily acted on Aβ42 and Aβ38
Structure (SMILES): CC(=O)N1CCCC(c2ccc3[nH]c(C(=O)Nc4cc(F)cc(F)c4)cc3c2)C1 (stereo not drawn) [RO5254601]
Combined pathogenic species (Aβ42 + Aβ43) [8]: lower the ratio of combined pathogenic species
Secreted Aβ43 [8]: could not lower Aβ43
Competition of RO6874585 crosslinking to presenilin [9]: competed with presenilin binding of RO6874585
Aβ40 (gel) [6]: little effect on Aβ40
Total Aβ levels [12]: without affecting total Aβ levels
Long species (Aβ42 + Aβ43), overall fraction / sum ([13]; RO5254601 2.5 µM): not reduced; also recorded: barely reduced the sum of long Aβ42 and Aβ43 species
Notch1 cleavage / NICD release [7]: did not impair Notch1 cleavage

Aβ42 lowering ([4]; H4/sw cells): lowering Aβ42
IC50 [4, 18]: 128 ± 44.7 nM
Photoaffinity labeling of PS1 L166P versus WT [14]: without apparent differences to the WT
Structure (SMILES): O=C(CCCC[C@@H]1SC[C@@H]2NC(=O)N[C@@H]21)NCCOCCOCCOCCNC(=O)COc1ccc(C(=O)c2ccc(OCC(=O)N3CC[C@@H](Oc4ccc5[nH]c(C(=O)Nc6ccc(F)c(F)c6)cc5c4)C3)cc2)cc1 [RO6874585]
Proteins labeled by photoaffinity probe ([9]; UV crosslinking, streptavidin pull-down, immunoblot): PS1 and PS2 NTF and CTF as specific targets
Notch1 cleavage / NICD release [7]: without inhibiting Notch1 processing

Secreted Aβ42 [10]: reduced both Aβ42 and Aβ43
Secreted Aβ43 [10]: reduced both Aβ42 and Aβ43
Secreted Aβ38 ([1]; 24 h, BPN-15606 360 nM): strongly increased Aβ38
Aβ40 (gel) [2]: strong reduction of Aβ40
Aβ38 (gel) ([3]; RO7019009 500 nM): increased generation of Aβ38
Processivity: ratio of shorter Aβ37/38 combined with Aβ40 to longer Aβ42/43 species ([3]; RO7019009 500 nM): increased processivity
IC50 [4]: 3.76 ± 0.6 nM
Structure (SMILES): Cc1nsc(N2CC3CCC(C2)C3Nc2nc3c(-c4ccc(F)c(F)c4F)cccn3n2)n1 (stereo not drawn) [RO7019009]
Combined pathogenic species (Aβ42 + Aβ43) [8]: effective lowering of the generation of total pathogenic Aβ42/43 species
Secreted Aβ43 [8]: only potently effective compound in lowering Aβ43
Short species Aβ37 and Aβ38 (gel) [2]: increase of both short species, Aβ37 and Aβ38
Effect on Aβ species profile [11]: reduced Aβ40 and Aβ42 while increasing both shorter species Aβ37 and Aβ38
Competition of RO6874585 crosslinking to presenilin [9]: differential competition for NTF and CTF binding
Aβ40 (gel) [6]: strong reduction of Aβ40
Processivity: ratio of shorter Aβ37/38 combined with Aβ40 to longer Aβ42/43 species ([6]; heterozygous KI MEF, RO7019009 500 nM): increased processivity
Short species Aβ37 and Aβ38 (gel) ([6]; heterozygous KI MEF): increase of both short species, Aβ37 and Aβ38
IC50 [15]: ~14 nM and 14 nM
Total Aβ levels [12]: without affecting total Aβ levels
Effect on Aβ species profile ([13]; RO7019009 500 nM or 2.5 µM): efficiently reduced not only Aβ40 but also Aβ43 and, especially at higher concentrations, Aβ42
IC50 [16]: ≥ 2 nM

Aβ38 level in treated cells, % of total Aβ ([1]; GSM-1 2.5 µM, RO-02 500 nM, one range given for both compounds and both 'other genotypes'): 30–60%
Aβ40 (gel) [2]: strong reduction of Aβ40
IC50 [4]: 20.5 ± 4.38 nM
Aβ38 level in treated cells, % of total Aβ [17]: 6–8%
Structure (SMILES): COc1cc(Nc2nc(Cc3ccc(Cl)cc3)cc(C(C)(C)O)n2)ccc1-n1cnc(C)c1 [RO-02, reference compound]
Aβ38 level in treated cells, % of total Aβ [8]: 30–60%
Short species Aβ37 and Aβ38 (gel) [2]: increase of both short species, Aβ37 and Aβ38
Competition of RO6874585 crosslinking to presenilin [9]: did not or only weakly compete binding
Aβ40 (gel) [6]: strong reduction of Aβ40
Short species Aβ37 and Aβ38 (gel) ([6]; heterozygous KI MEF): increase of both short species, Aβ37 and Aβ38
IC50 [15]: ~15 nM and 15 nM
